Experimental data from PMC12227661, “Shedding Light on the Phytochemical and Biological Fingerprints of Fibigia clypeata (L.) Medik Essential Oil as a Pharmacotherapeutic Agent” (Food Science & Nutrition, 2025).
In brackets after ≈: the same amount, converted by molar mass.

Key:
four yeast strains = test system: four yeast strains; parameters: method as in Kyung and Fleming [1997]; conditions: ref Kyung and Fleming [1997]; cited from earlier work
[1] = test system: various bacterial strains; parameters: method as in Kyung and Fleming [1997]; conditions: ref Kyung and Fleming [1997]; cited from earlier work
[2] = target: T1, Acetylcholinesterase (AChE) (Electrophorus electricus, UniProt O42275); parameters: method as in Ryan and Bryan [1988]; conditions: ref Ryan and Bryan [1988]; cited from earlier work
T1 construct: purchased Sigma C3389
T1 sequence (O42275 24-633): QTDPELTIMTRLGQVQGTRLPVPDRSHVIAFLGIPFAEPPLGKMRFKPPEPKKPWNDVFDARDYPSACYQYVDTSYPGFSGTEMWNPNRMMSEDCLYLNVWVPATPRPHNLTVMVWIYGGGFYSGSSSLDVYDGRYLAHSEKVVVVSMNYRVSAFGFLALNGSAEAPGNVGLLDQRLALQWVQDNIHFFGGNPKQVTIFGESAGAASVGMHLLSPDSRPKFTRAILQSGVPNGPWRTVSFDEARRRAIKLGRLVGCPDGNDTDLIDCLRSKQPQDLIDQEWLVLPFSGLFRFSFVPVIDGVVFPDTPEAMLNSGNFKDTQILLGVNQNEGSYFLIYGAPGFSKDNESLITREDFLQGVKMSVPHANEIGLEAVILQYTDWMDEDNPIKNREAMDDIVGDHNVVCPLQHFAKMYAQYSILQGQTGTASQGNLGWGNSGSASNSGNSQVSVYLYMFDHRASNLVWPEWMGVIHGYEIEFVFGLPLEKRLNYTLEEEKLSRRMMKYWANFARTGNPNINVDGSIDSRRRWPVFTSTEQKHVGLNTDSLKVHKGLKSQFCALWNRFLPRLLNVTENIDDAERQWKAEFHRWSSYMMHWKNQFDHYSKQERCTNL

[3] = DPPH free radical scavenging activity assay
Experimental: The DPPH radical scavenging activity assay has been performed according to the method of Blois et al. with minor modifications (Blois [1958]). Butylated Hydroxy Toluene (BHT), Butylated Hydroxy Anisole (BHA), and α‐TOC (Tocopherol) were also assayed as standards for comparison.

[4] = ABTS cation radical decolorization activity; conditions: footnote a: given as IC50
Description: The procedure was followed from the literature (Miller et al. [1993]) and the measurements at 734 nm were read for each concentration relative to a blank absorbance (DMSO). BHA, BHT, and ‐TOC were used as standards. The obtained values were compared to the standards.

[5] = CUPRAC cupric ion‐reducing antioxidant capacity; conditions: absorbance 450 nm after 30 min
Experimental: The antioxidant capacity assay to identify the reductive efficiencies of the essential oil for Cu metal was performed according to the method reported in the literature (Apak et al. [2005]). The absorbances were measured at 450 nm after 30 min. BHA, BHT, and α‐TOC were used as standards.

Row | Structure (SMILES) | MIC (four yeast strains) [ppm] | MIC [1] [ppm] | AChE inhibition [2] | IC50 values DPPH free radical [3] [µg/mL] | A 0.5 values ABTS cation radical [4] [µg/mL] | A 0.5 values CUPRAC [5] [µg/mL]
1 | CSSSC [Compound 2, Dimethyl trisulfide] | 20 | 200 | – | – | – | –
2 | C=CC(C)(O)CCC=C(C)C (stereo not drawn) [Compound 6, Linalool] | – | – | no significant inhibition | – | – | –
3 | COc1ccc(O)c(C(C)(C)C)c1 [BHA, Butylated Hydroxy Anisole] | – | – | – | 3.22 ± 0.08 (≈ 17.9 µM) | 2.74 ± 0.03 | 4.14 ± 0.17
4 | Cc1c(C)c2c(c(C)c1O)CC[C@@](C)(CCC[C@H](C)CCC[C@H](C)CCCC(C)C)O2 [α‐TOC, Tocopherol] | – | – | – | 1.41 ± 0.04 (≈ 3.27 µM) | 8.48 ± 0.43 | 13.64 ± 0.32
5 | Cc1cc(C(C)(C)C)c(O)c(C(C)(C)C)c1 [BHT, Butylated Hydroxy Toluene] | – | – | – | 16.71 ± 0.80 (≈ 75.8 µM) | 4.44 ± 0.30 | 3.93 ± 0.24
